Measured values taken from ChEMBL document CHEMBL1201862, “PubChem BioAssay data set” (2004).
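Protocol summary: plate cells (96-well), add compound at 5 concentrations, incubate 48 h, interpolate endpoints linearly. Here, GI50 denotes the concentration required for 50% inhibition of growth.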 Calls of active or inactive are those of the source. No stated cut-off is given here; in the data, active = GI50 up to about 1.1 µM and inactive = higher.

Legend:
Assay in all cases: growth of human tumour cells (NCI), 48 h
[1] = system: SR
[2] = system: HOP-62
[3] = system: HT-29
[4] = system: KM12
[5] = system: LXFL 529
[6] = system: RPMI-8226
[7] = system: SK-MEL-2
[8] = system: M14
[9] = system: SF-268
[10] = system: SF-295
[11] = system: HCT-116
[12] = system: HCT-15
[13] = system: 786-0
[14] = system: NCI-H460
[15] = system: DMS-114
[16] = system: SNB-78
[17] = system: UACC-257
[18] = system: RXF 631
[19] = system: M19-MEL
[20] = system: U-251
[21] = system: SW-620
[22] = system: OVCAR-4
[23] = system: TK-10
[24] = system: MOLT-4
[25] = system: OVCAR-3
[26] = system: K562
[27] = system: SK-OV-3
[28] = system: SF-539
[29] = system: NCI-H226
[30] = system: HOP-92
[31] = system: HL-60
[32] = system: Malme-3M
[33] = system: SK-MEL-28
[34] = system: XF498
[35] = system: UO-31
[36] = system: DLD-1
[37] = system: HCC 2998
[38] = system: SN12C
[39] = system: SK-MEL-5
[40] = system: LOX IMVI
[41] = system: CAKI-1
[42] = system: A549
[43] = system: UACC-62
[44] = system: NCI-H522
[45] = system: OVCAR-8
[46] = system: SNB-19
[47] = system: NCI-H23
[48] = system: IGROV-1
[49] = system: ACHN
[50] = system: EKVX
[51] = system: RXF 393
[52] = system: HOP-18
[53] = system: OVCAR-5
[54] = system: CCRF-CEM

## CC(=O)Nc1ccc(/C=c2\sc3nnc(CCC(=O)Nc4ccccc4Cl)n3c2=O)cc1
[1]
  GI50: 20.3 µM (inactive)
[2]
  GI50: 54 µM (inactive)
[3]
  GI50: 54.2 µM (inactive)
[4]
  GI50: 20.9 µM (inactive)
[5]
  GI50: 30 µM (inactive)
[6]
  GI50: 20.8 µM (inactive)
[7]
  GI50: 31.9 µM (inactive)
[8]
  GI50: 16.7 µM (inactive)
[9]
  GI50: 26.4 µM (inactive)
[10]
  GI50: 18.1 µM (inactive)
[11]
  GI50: 37.7 µM (inactive)
[12]
  GI50: 44.6 µM
[13]
  GI50: 21.8 µM (inactive)
[14]
  GI50: > 10 µM (inactive)
[15]
  GI50: 55.5 µM (inactive)
[16]
  GI50: 47.3 µM (inactive)
[17]
  GI50: > 10 µM (inactive)
[18]
  GI50: 32.9 µM (inactive)
[19]
  GI50: 37.4 µM (inactive)
[20]
  GI50: 17.9 µM (inactive)
[21]
  GI50: 27 µM (inactive)
[22]
  GI50: 20.6 µM (inactive)
[23]
  GI50: 37.8 µM (inactive)
[24]
  GI50: 19.4 µM (inactive)
[25]
  GI50: 21.6 µM (inactive)
[26]
  GI50: 24.2 µM (inactive)
[27]
  GI50: > 100 µM (inactive)
[28]
  GI50: 23.5 µM (inactive)
[29]
  GI50: 23.4 µM (inactive)
[30]
  GI50: 27.4 µM (inactive)
[31]
  GI50: 19.8 µM (inactive)
[32]
  GI50: 38.8 µM (inactive)
[33]
  GI50: 23 µM (inactive)
[34]
  GI50: 25.1 µM (inactive)
[35]
  GI50: > 100 µM (inactive)
[36]
  GI50: 32.4 µM (inactive)
[37]
  GI50: > 10 µM (inactive)
[38]
  GI50: 39.6 µM (inactive)
[39]
  GI50: 25 µM (inactive)
[40]
  GI50: 17.2 µM (inactive)
[41]
  GI50: > 100 µM (inactive)
[42]
  GI50: 30.4 µM (inactive)
[43]
  GI50: 23.9 µM (inactive)
[44]
  GI50: 18.7 µM (inactive)
[45]
  GI50: > 10 µM (inactive)
[46]
  GI50: 38.9 µM (inactive)
[47]
  GI50: 46.3 µM (inactive)
[48]
  GI50: > 100 µM (inactive)
[49]
  GI50: > 100 µM (inactive)
[50]
  GI50: > 100 µM (inactive)
[51]
  GI50: 27.3 µM (inactive)
[52]
  GI50: 52.8 µM (inactive)
[53]
  GI50: > 100 µM (inactive)
[54]
  GI50: 18.3 µM (inactive)
